According to patent publication US20250057917A1, “COMPOSITION AND METHODS FOR TREATING RADIATION INDUCED INJURY” (Xequel Bio, Inc., priority 2023, published 2025):
Read-outs that look alike come from different tables or passages of the source. The star is where a group is joined. Biotin = O=C1N[C@H]2[C@H](CS[C@H]2CCCCC(=O)*)N1; Ahx = NCCCCCC(=O)O

What was measured:
keratinocyte [1] = settings: aCT1 treatment, Student's t-test p<0.0001, n=8, FIG. 9A
From the text: (§1) Student's t-test, *p<0.0001; n=8; mean±SEM. […] Student's t-test, *p<0.0018; n=3; mean±SEM.

keratinocyte [2] = settings: aCT1 treatment, Student's t-test p<0.0018, n=3, FIG. 9B
From the text: as §1

**Q.** With “{Biotin-Ahx}-RQPKIWFPNRRKPWKKRPRPDDLEI-OH [aCT1]” as the substance, how does the keratinocyte proliferation (keratinocyte [1]) read?
**A.** an increase in keratinocyte proliferation

**Q.** And the keratinocyte proliferation (keratinocyte [1]; listed as aCT1 peptide)?
**A.** accelerated keratinocyte migration and proliferation

**Q.** What about the keratinocyte migration (keratinocyte [2]) of the same substance?
**A.** an increase in keratinocyte migration

**Q.** What about the keratinocyte migration (keratinocyte [2]; listed as aCT1 peptide) of the same substance?
**A.** accelerated keratinocyte migration and proliferation
